Structures are written as SMILES.

Common to all, as to assay type: in vivo, mouse
For test [1], the system named is subcutaneous CT-26WT syngeneic graft of large intestine cancer. Description: Drug efficacy test, combined use with anti-PD-1 antibody, mice with subcutaneous CT-26WT syngeneic graft (Test Example 2). To be noted: 40 mg/kg oral twice a day, combined with anti-PD-1 antibody 200 μg/individual i.p.; Balb/c mice; FIG. 1. The protocol: Drug Efficacy Test on Combined Use of IDO/TDO Inhibitor and Anti-PD-1 Antibody Using Mice with Subcutaneous CT-26WT Syngeneic Graft of Large Intestine Cancer
5×10^5 cells of syngeneic large intestine cancer cell line CT26WT were subcutaneously transplanted to each of 6-week-old female Balb/c mice. The mice were divided into 6 groups each involving 6 to 8 individuals 11 days later when the average tumor size was 212 mm^3. The oral administration (solvent for oral administration and 40 mg/kg each of epacadostat and compound 1 were administered twice a day at a 5-hour interval from days 1 to 5, days 8 to 12, and days 15 to 19) and intraperitoneal administration (PBS and 200 μg/individual of an anti-PD1 antibody were administered once a day on days 1, 4, 8, 11, 15, and 18) of each agent were started. Then, the major axis and minor axis of subcutaneous tumor were measured three times a week using calipers, and a mean and standard error of the mean of the calculated volumes in each group were plotted. The calculation expression was Volume (mm^3)=[Width^2 (mm^2)×Length (mm)]/2. The oral administration agent was dissolved in a solvent for oral administration of DMSO:PEG400:PBS=5:20:75. […]

The test system of test [2] is subcutaneous CT-26CL25 syngeneic graft of large intestine cancer. Description: Drug efficacy test, combined use of compound 1 and oxaliplatin, mice with subcutaneous CT-26CL25 syngeneic graft (Test Example 3). Conditions: 40 mg/kg oral twice a day, combined with oxaliplatin 10 mg/kg i.v.; Balb/c mice; FIG. 2. As for the experimental part: Drug Efficacy Test on Combined Use of Compound 1 and Oxaliplatin Using Mice with Subcutaneous CT-26CL25 Syngeneic Graft of Large Intestine Cancer
5×10^5 cells of syngeneic large intestine cancer cell line CT26CL25 were subcutaneously transplanted to each of 8-week-old female Balb/c mice. The mice were divided into 4 groups each involving 8 individuals 10 days later when the average tumor size was 185 mm^3. The oral administration (solvent for oral administration and 40 mg/kg compound 1 were administered twice a day at a 5-hour interval from days 1 to 5 and days 8 to 12) and intravenous administration (5% glucose solution and 10 mg/kg oxaliplatin were administered once a day on days 1 and 8) of each agent were started. Then, the major axis and minor axis of subcutaneous tumor were measured three times a week using calipers, and a mean and standard error of the mean of the ratios of the calculated volumes to the volumes at the administration start day in each group were plotted. The calculation expression was Volume (mm^3)=[Width^2 (mm^2)×Length (mm)]/2. Compound 1 was dissolved in a solvent for oral administration of DMSO:PEG400:PBS=5:20:75.
∘: the solvent for oral administration and the 5% glucose solution, •: the solvent for oral administration and oxaliplatin, Δ: compound 1 and the 5% glucose solution, and ▴: compound 1 and oxaliplatin.

Test [3] deals with subcutaneous CT-26WT syngeneic graft of large intestine cancer. The experiment in a line: Drug efficacy test, combined use of compound 103 and anti-PD1 antibody, mice with subcutaneous CT-26WT syngeneic graft (Test Example 7). Conditions: 40 mg/kg oral twice a day, combined with anti-PD1 antibody 200 μg/individual i.p.; Balb/c mice; FIG. 6. The protocol:
Drug Efficacy Test on Combined Use of Compound 103 and Anti-PD1 Antibody Using Mice with Subcutaneous CT-26WT Syngeneic Graft of Large Intestine Cancer
5×10^5 cells of syngeneic large intestine cancer cell line CT26WT were subcutaneously transplanted to each of 6-week-old female Balb/c mice. The mice were divided into 3 groups each involving 8 individuals 10 days later when the average tumor size was 176 mm^3. The oral administration (40 mg/kg of compound 103 was administered twice a day at a 5-hour interval from days 1 to 5 and days 8 to 12), intravenous administration (5% glucose solution was administered once a day on days 1 and 8) and intraperitoneal administration (PBS and 200 μg/individual of an anti-PD1 antibody were administered once a day on days 1 and 8) of each agent were started. Then, the major axis and minor axis of subcutaneous tumor were measured three times a week using calipers, and a mean and standard error of the mean of the calculated volumes in each group were plotted. The calculation expression was Volume (mm^3)=[Width^2 (mm^2)×Length (mm)]/2. Compound 103 was suspended in 0.5% methyl cellulose.
• with the solid line: the 5% glucose solution and PBS, X with the dotted line: the 5% glucose solution and the anti-PD1 antibody, and ∘ with the solid line: compound 103 and the anti-PD1 antibody.

Test [4] has the same test system. Description: Drug efficacy test, combined use of compound 29 or 38 and anti-PD1 antibody, mice with subcutaneous CT-26WT syngeneic graft (Test Example 6). To be noted: 40 mg/kg oral twice a day, combined with anti-PD1 antibody 200 μg/individual i.p.; Balb/c mice; FIG. 5. As for the experimental part:
Drug Efficacy Test on Combined Use of Compound 29 or 38 and Anti-PD1 Antibody Using Mice with Subcutaneous CT-26WT Syngeneic Graft of Large Intestine Cancer
5×10^5 cells of syngeneic large intestine cancer cell line CT26WT were subcutaneously transplanted to each of 6-week-old female Balb/c mice. The mice were divided into 6 groups each involving 6 individuals 10 days later when the average tumor size was 250 mm^3. The oral administration (solvent for oral administration and 40 mg/kg each of compounds 29 and 38 were administered twice a day at a 5-hour interval from days 1 to 5 and days 8 to 12) and intraperitoneal administration (PBS and 200 μg/individual of an anti-PD1 antibody were administered once a day on days 1 and 8) of each agent were started. Then, the major axis and minor axis of subcutaneous tumor were measured three times a week using calipers, and a mean and standard error of the mean of the calculated volumes in each group were plotted. The calculation expression was Volume (mm^3)=[[…]×Length (mm)]/2. Compound 29 or 38 was suspended in 0.5% methyl cellulose as a solvent for oral administration. […]

For `Cl.Cl.N=C(N)SCc1ccccc1CSC(=N)N` [Compound 1, 1,2-phenylenebis(methylene) dicarbamimidothioate dihydrochloride], the “tumor growth (tumor volume)” value in test [1] is recorded as “can suppress tumor growth”. Further, the “tumor growth (ratio of tumor volume to start day)” value in test [2] is recorded as “can suppress tumor growth”.

Turning to `Br.N#Cc1ccc(CNC(=O)c2cc(Br)ccc2CSC(=N)N)cc1` [Compound 103, 4-Bromo-2-((4-cyanobenzyl)carbamoyl)benzyl carbamimidothioate hydrobromide], the “tumor growth (tumor volume)” value in test [3] is reported as “can suppress tumor growth”.

In the case of `c1ccc(CSC2=NCN(CC3CCCCC3)CN2)c(CSC2=NCN(CC3CCCCC3)CN2)c1` [Compound 29, 1,2-bis(((5-(cyclohexylmethyl)-1,4,5,6-tetrahydro-1,3,5-triazin-2-yl)thio)methyl)benzene], the “tumor growth (tumor volume)” value in test [4] was “can suppress tumor growth”.
